# Data reported in patent US10130633B2, “Compounds” (BAYER PHARMA AKTIENGESELLSCHAFT, priority 2013, dated 2018).
# Legend:
# [1] = system: constitutive active colorectal cancer cell (CRC) Wnt pathway; experiment: HCT116 TOPFlash cellular reporter assay (Super TopFlash luciferase), constitutive active Wnt pathway; assay type: cell-based; conditions: HCT116 TOP reporter cells, 36 hours incubation, luciferase expression
# Protocol: In order to discover and characterize small molecules which inhibit the constitutive active colorectal cancer cell (CRC) Wnt pathway, a cellular reporter assay was employed. […] Stable transfectants were generated by cotransfection with pcDNA3 and selection of stable transfected cells with 1 mg/ml G418.
# [2] = system: HCT116 FOP control reporter cell line; experiment: HCT116 FOPFlash control reporter assay (FOP control vector, non-functional TCF elements); assay type: cell-based; conditions: HCT116 FOP control reporter cells, 36 hours incubation, luciferase expression
# From the text: In a parallel approach, HCT116 cells were cotransfected with the FOP control vector and pcDNA3. The FOP vector is identical to the TOP construct, but it contains instead of functional TCF elements a randomized, non-functional sequence. For this transfection a stable transfected cell line was generated as well.
SMILES,IC50 [1] [nM],"IC50 ([2]; Homo sapiens, HCT-116, 36 h) [nM]","IC50 ([1]; Homo sapiens, HCT-116, 36 h) [nM]",IC50 [2] [nM]
"Nc1ccc(-c2nnc(NC(=O)c3ccc(OC(F)(F)F)c(NC(=O)CN4CCOCC4)c3)s2)cc1 [Example 263, N-[5-(4-aminophenyl)-1,3,4-thiadiazol-2-yl]-3-[(morpholin-4-ylacetyl)amino]-4-(trifluoromethoxy)benzamide]",–,≥ 50000,250,–
"COc1ccc(C(=O)Nc2ccc(-c3ccccc3)nc2)cc1NC(=O)CN1CCOCC1 [Example 4, 4-methoxy-3-[(morpholin-4-ylacetyl)amino]-N-(6-phenylpyridin-3-yl)benzamide]",–,≥ 50000,300,–
"O=C(CN1CCOCC1)Nc1cc(C(=O)Nc2ccc(-c3ccccc3F)nc2)ccc1OC(F)(F)F [Example 5, N-[6-(2-fluorophenyl)pyridin-3-yl]-3-[(morpholin-4-ylacetyl)amino]-4-(trifluoromethoxy)benzamide]",–,≥ 50000,40.3,–
"COc1ccccc1-c1nnc(NC(=O)c2ccc(OC(F)(F)F)c(NC(=O)CN3CCN(C)CC3)c2)s1 [Example 101, N-[5-(2-methoxyphenyl)-1,3,4-thiadiazol-2-yl]-3-{[(4-methylpiperazin-1-yl)acetyl]amino}-4-(trifluoromethoxy)benzamide]",–,≥ 50000,3200,–
"CC(C(=O)Nc1cc(NC(=O)c2ccc(-c3ccccc3F)nc2)ccc1OC(F)(F)F)N1CC2CCC(C1)O2 (centres unmarked) [Example 204, 6-(2-fluorophenyl)-N-[3-{[2-(8-oxa-3-azabicyclo[3.2.1]oct-3-yl)propanoyl]amino}-4-(trifluoromethoxy)phenyl] nicotinamide]",76.5,–,–,32800
"Cn1nc(C(=O)Nc2ccc(OC(F)(F)F)c(NC(=O)CN3CCOCC3)c2)cc1-c1ccccc1 [Example 123, 1-methyl-N-{3-[(morpholin-4-ylacetyl)amino]-4-(trifluoromethoxy)phenyl}-5-phenyl-1H-pyrazole-3-carboxamide]",–,≥ 50000,560,–
"CC(C(=O)Nc1cc(NC(=O)c2ccc(-c3cc(F)cc(F)c3)nc2)ccc1OC(F)(F)F)N1CC2CCC(C1)O2 (centres unmarked) [Example 218, 6-(3,5-difluorophenyl)-N-[3-{[2-(8-oxa-3-azabicyclo[3.2.1]oct-3-yl)propanoyl]amino}-4-(trifluoromethoxy)phenyl] nicotinamide]",330,–,–,15000
"CCc1ccccc1-c1nnc(NC(=O)c2ccc(OC(F)(F)F)c(NC(=O)CN3CCOCC3)c2)s1 [Example 269, N-[5-(2-ethylphenyl)-1,3,4-thiadiazol-2-yl]-3-[(morpholin-4-ylacetyl)amino]-4-(trifluoromethoxy)benzamide]",–,≥ 50000,375,–
"CC(C(=O)Nc1cc(NC(=O)c2ccc(-c3ccccc3F)nc2)ccc1OC(F)(F)F)N1CCOCC1 (centres unmarked) [Example 224, 6-(2-fluorophenyl)-N-[3-{[2-(morpholin-4-yl)propanoyl]amino}-4-(trifluoromethoxy)phenyl] nicotinamide]",382,–,–,≥ 50000
"O=C(CN1CC2CCC(C1)O2)Nc1cc(C(=O)Nc2nnc(-c3ccccc3)s2)ccc1OC(F)F [Example 86, 4-(difluoromethoxy)-3-[(8-oxa-3-azabicyclo[3.2.1]oct-3-ylacetyl)amino]-N-(5-phenyl-1,3,4-thiadiazol-2-yl)benzamide]",–,≥ 50000,890,–
"O=C(CN1CCOCC1)Nc1cc(C(=O)Nc2ccc(-c3ccccc3)nc2)ccc1C(F)(F)F [Example 13, 3-[(morpholin-4-ylacetyl)amino]-N-(6-phenylpyridin-3-yl)-4-(trifluoromethyl)benzamide]",–,≥ 50000,362,–
"O=C(Cc1ccccn1)Nc1cc(C(=O)Nc2ccc(-c3ccccc3F)nc2)ccc1OC1CC1 [Example 238, 4-(cyclopropyloxy)-N-[6-(2-fluorophenyl)pyridin-3-yl]-3-[(pyridin-2-ylacetyl)amino]benzamide]",–,≥ 50000,1750,–
"O=C(Cn1cccn1)Nc1cc(C(=O)Nc2ccc(-c3ccccc3F)nc2)ccc1OC1CC1 [Example 141, 4-(cyclopropyloxy)-N-[6-(2-fluorophenyl)pyridin-3-yl]-3-[(1H-pyrazol-1-ylacetyl)amino]benzamide]",–,≥ 50000,680,–
"CC(C(=O)Nc1cc(C(=O)Nc2ccc(-c3cc(F)cc(F)c3)nc2)ccc1OC(F)(F)F)N1C[C@@H]2C[C@H]1CO2 (relative stereo) [Example 181, N-[6-(3,5-difluorophenyl)pyridin-3-yl]-3-({(2S*)-2-[(1S,4S)-2-oxa-5-azabicyclo[2.2.1]hept-5-yl]propanoyl}amino)-4-(trifluoromethoxy)benzamide]",53,–,–,≥ 50000
"O=C(CN1CCOCC1)Nc1cc(C(=O)Nc2nnc(-c3ccc([N+](=O)[O-])cc3)s2)ccc1OC(F)(F)F [Example 97, 3-[(morpholin-4-ylacetyl)amino]-N-[5-(4-nitrophenyl)-1,3,4-thiadiazol-2-yl]-4-(trifluoromethoxy)benzamide]",–,≥ 50000,1930,–
"CN1CCN(C2(C(=O)Nc3cc(C(=O)Nc4nnc(-c5ccccc5)s4)ccc3OC(F)(F)F)CC2)CC1 [Example 52, 3-({[1-(4-methylpiperazin-1-yl)cyclopropyl]carbonyl}amino)-N-(5-phenyl-1,3,4-thiadiazol-2-yl)-4-(trifluoromethoxy)benzamide]",–,≥ 50000,26.5,–

# Continued, values first:
IC50 [1] [nM],"IC50 ([2]; Homo sapiens, HCT-116, 36 h) [nM]","IC50 ([1]; Homo sapiens, HCT-116, 36 h) [nM]",IC50 [2] [nM],SMILES
288,44000,–,–,"CC(C(=O)Nc1cc(C(=O)Nc2ccc(-c3cccc(F)c3)nc2)ccc1OC(F)(F)F)N1CCOCC1 (centres unmarked) [Example 182, N-[6-(3-fluorophenyl)pyridin-3-yl]-3-{[2-(morpholin-4-yl)propanoyl]amino}-4-(trifluoromethoxy)benzamide]"
–,≥ 50000,118,–,"O=C(CN1CCOCC1)Nc1cc(C(=O)Nc2nnc(-c3ccccc3)s2)ccc1OC1CC1 [Example 170, 4-(cyclopropyloxy)-3-[(morpholin-4-ylacetyl)amino]-N-(5-phenyl-1,3,4-thiadiazol-2-yl)benzamide]"
–,12400,135,–,"CC(C(=O)Nc1cc(C(=O)Nc2ccc(-c3cccc(F)c3)nc2)ccc1OC(F)(F)F)N1C[C@@H]2C[C@H]1CO2 (stereo partly drawn) [Example 192, N-[6-(3-fluorophenyl)pyridin-3-yl]-3-({2-[(1S,4S)-2-oxa-5-azabicyclo[2.2.1]hept-5-yl]propanoyl}amino)-4-(trifluoromethoxy)benzamide]"
–,≥ 50000,4340,–,"O=C(CN1C[C@@H]2C[C@H]1CO2)Nc1cc(C(=O)Nc2nnc(-c3ccccc3)s2)ccc1OC(F)(F)F [Example 254, 3-{[(1S,4S)-2-oxa-5-azabicyclo[2.2.1]hept-5-ylacetyl]amino}-N-(5-phenyl-1,3,4-thiadiazol-2-yl)-4-(trifluoromethoxy)benzamide]"
–,6300,375,–,"O=C(CN1C[C@@H]2C[C@H]1CO2)Nc1cc(C(=O)Nc2ccc(-c3cc(F)cc(F)c3)nc2)ccc1OC(F)(F)F [Example 214, N-[6-(3,5-difluorophenyl)pyridin-3-yl]-3-{[(1S,4S)-2-oxa-5-azabicyclo[2.2.1]hept-5-ylacetyl]amino}-4-(trifluoromethoxy)benzamide]"
–,32500,592,–,"COCCNC(=O)c1ccc(C(=O)Nc2nnc(-c3ccccc3)s2)cc1NC(=O)CN1CCN(C)CC1 [Example 155, N^1-(2-methoxyethyl)-2-{[(4-methylpiperazin-1-yl)acetyl]amino}-N^4-(5-phenyl-1,3,4-thiadiazol-2-yl)terephthalamide]"
–,19500,458,–,"Cc1ccc(-c2nnc(NC(=O)c3ccc(OC(F)(F)F)c(NC(=O)CN4CCN(C)CC4)c3)s2)cc1 [Example 102, N-[5-(4-methylphenyl)-1,3,4-thiadiazol-2-yl]-3-{[(4-methylpiperazin-1-yl)acetyl]amino}-4-(trifluoromethoxy)benzamide]"
–,10000,325,–,"C[C@@H]1CN(C)CCN1CC(=O)Nc1cc(C(=O)Nc2ccc(-c3ccccc3F)nc2)ccc1OC(F)(F)F [Example 161, 3-({[(2R)-2,4-dimethylpiperazin-1-yl]acetyl}amino)-N-[6-(2-fluorophenyl)pyridin-3-yl]-4-(trifluoromethoxy)benzamide]"
–,12000,1080,–,"CN1CCCN(CC(=O)Nc2cc(C(=O)Nc3nnc(-c4ccccc4)s3)ccc2OC(F)(F)F)CC1 [Example 168, 3-{[(4-methyl-1,4-diazepan-1-yl)acetyl]amino}-N-(5-phenyl-1,3,4-thiadiazol-2-yl)-4-(trifluoromethoxy)benzamide]"
–,21000,752,–,"Cc1ccc(C(=O)Nc2nnc(-c3ccccc3)s2)cc1NC(=O)C1(N2CCOCC2)CC1 [Example 103, 4-methyl-3-({[1-(morpholin-4-yl)cyclopropyl]carbonyl}amino)-N-(5-phenyl-1,3,4-thiadiazol-2-yl)benzamide]"
–,25000,500,–,"CS(=O)(=O)c1ccc(C(=O)Nc2ccc(-c3ccccc3F)nc2)cc1NC(=O)CN1CCOCC1 [Example 139, N-[6-(2-fluorophenyl)pyridin-3-yl]-4-(methylsulfonyl)-3-[(morpholin-4-ylacetyl)amino]benzamide]"
–,8800,71.7,–,"CC(C(=O)Nc1cc(NC(=O)c2ccc(-c3cccc(F)c3)nc2)ccc1OC(F)(F)F)N1C[C@@H]2C[C@H]1CO2 (stereo partly drawn) [Example 199, 6-(3-fluorophenyl)-N-[3-({2-[(1S,4S)-2-oxa-5-azabicyclo[2.2.1]hept-5-yl]propanoyl}amino)-4-(trifluoromethoxy)phenyl] nicotinamide]"
